From patent US20260256751A1, “COMBINATION OF BETA-2-ADRENERGIC RECEPTOR AGONISTS AND GLP-1 RECEPTOR AGONISTS FOR USE IN TREATING HYPERGLYCAEMIA” (ATROGI AB, priority 2023, published 2026) come the findings set out here.

Test [1] has as its system differentiated L6-myotubes. The test is described as follows: Glucose uptake screen (Biological example 1 of WO 2019/053427). It counts as cell-based. As to conditions: compound at 10 μM, activity relative to isoproterenol at 10 μM, read-out: Biological example 1 of WO 2019/053427 (GU). Here is the method: (§1) Compounds described in publications referenced and incorporated herein were screened in accordance with the procedures outlined in Biological example 1 and Biological example 2 of WO 2019/053427.
L6-myoblasts were grown in Dulbecco's Modified Eagle's Medium (DMEM) containing 1 g/L glucose supplemented with 10% fetal bovine serum (FBS), 2 mM L-glutamine, 50 U/mL penicillin, […] streptomycin and 10 mM HEPES. Cells were plated at 1x 10^5 cells per mL in 24-well plates. After reaching 90% confluence the cells were grown in medium containing 2% FBS for 7 days where upon cells differentiated into myotubes. The differentiated L6-myotubes were serum-starved overnight in medium containing 0.5% fatty-acid free BSA and stimulated with Compound A at a final concentration of 1×10^−5 M in the presence of the selective β2-adrenergic receptor antagonist ICI-118551. After 1 h 40 min the cells were washed with warm, glucose free medium twice and another portion of agonist was added to the glucose free medium. After another 20 min of incubation the cells were exposed to 50 nM ^3H-2-deoxyglucose for 10 min before washed in ice cold glucose free medium three times and lysed in 400 µl/well 0.2 M NaOH for 1 h at 60° C. The cell lysate was mixed with 4 ml scintillation buffer (Emulsifier Safe, Perkin Elmer) and the radioactivity was detected in a P-counter (Tri-Carb 4810TR, Perkin Elmer).

The subject of test [2] is differentiated L6-myotubes. The test is described as follows: cAMP production relative to isoprenaline (Biological example 2 of WO 2019/053427). It counts as cell-based. The settings on record: 0.25 h, compound at 10 μM, activity relative to isoproterenol at 10 μM.
From the text: For example, the level of cAMP production induced by a given compound can be determined by reference to the amount induced by a defined concentration of that compound relative to that induced by the same concentration of a reference compound, such as isoprenaline, using techniques known to those skilled in the art (e.g. following the protocol as described in the biological examples provided in WO 2019/053427, i.e. in cells, such as differentiated L6-myotubes, having been stimulated with isoprenaline or the compound with a final concentration of 1×10^−5 M, for 15 min in stimulation buffer, such as HBSS supplemented with 1% BSA, 5 mM HEPES and 1 mM IBMX, at pH 7.4).
as §1

Bounds are passed on as bounds.

With `CC(C)(C)NC[C@H](O)c1cccc(F)c1` [Compound 54, (R)-2-(tert-butylamino)-1-(m-fluorophenyl)-1-ethanol], the Emax at 10 µM was over 75% in test [1] and under 25% in test [2].

As to `CCCCNCC(O)c1cc(F)cc(F)c1` (stereo not shown) [Compound 55, 2-(butylamino)-1-(3,5-difluorophenyl)-1-ethanol], the Emax at 10 µM in test [1] is 50 to 75%; in test [2], under 25%.

In the case of `CCCCNCC(O)c1ccc(F)c(F)c1` (stereo not shown) [Compound 56, 2-(butylamino)-1-(3,4-difluorophenyl)-1-ethanol], the Emax at 10 µM in test [1] was 50 to 75%; in test [2], under 25%.

For the molecule `CCC[C@@H]1CC[C@H]([C@H](O)c2cccc(O)c2)N1` [Compound 57, m-{(R)-[(2R,5R)-5-propyl-2-pyrrolidinyl]hydroxymeth-yl}phenol], the Emax at 10 µM is over 75% in test [1] and 50 to 75% in test [2].

On to `CCC[C@@H]1CC[C@H]([C@H](O)c2cccc(F)c2)N1` [Compound 58, (R)-[(2R,5R)-5-propyl-2-pyrrolidinyl](m-fluorophenyl)methanol], for which the Emax at 10 µM in test [1] is over 75%; in test [2], 25 to 50%.

Consider `CCC[C@@H]1CCC[C@H]([C@H](O)c2cccc(F)c2)N1` [Compound 59, (R)-[(2R,6R)-6-propyl-2-piperidyl](m-fluorophenyl)methanol], for which the Emax at 10 µM in test [1] is 25 to 50%; in test [2] it was under 25%.

Turning to `CCC[C@@H]1CCC[C@H]([C@@H](O)c2cccc(F)c2)N1` [Compound 60, (S)-[(2R,6R)-6-propyl-2-piperidyl](m-fluorophenyl)methanol], the Emax at 10 µM in test [1] is 25 to 50%; in test [2], under 25%.

As for `CCCC(C)(C)NC[C@H](O)c1cccc(F)c1` [Compound 61, (R)-2-(1,1-dimethylbutylamino)-1-(m-fluorophenyl)-1-ethanol], the Emax at 10 µM in test [1] is over 75%; in test [2] it was under 25%.

Consider `CCCCNCC(O)c1cc[nH]c(=O)c1` (stereo not shown) [Compound 62, 4-[2-(butylamino)-1-hydroyxethyl]-2(1H)-pyridinone], for which the results for the Emax at 10 µM in test [1] and in test [2] were 25 to 50% and under 25%, respectively.

Regarding `CCCCNCC(O)c1ccc(=O)[nH]c1` (stereo not shown) [Compound 63, 5-[2-(butylamino)-1-hydroxyethyl]-2(1H)-pyridinone], the Emax at 10 µM in test [1] is 25 to 50%; in test [2], under 25%.

`CCC[C@H]1CCC[C@H]([C@H](O)c2cccc(O)c2)N1` [Compound 64, (R)-[(2R,6S)-6-propyl-2-piperidyl](m-hydroxyphenyl)methanol]: the Emax at 10 µM in test [1] was over 75%; in test [2], under 25%.

As for `CCC[C@H]1CCC[C@H]([C@@H](O)c2ccc(F)c(F)c2)N1` [Compound 65, (S)-[(2R,6S)-6-propyl-2-piperidyl](3,4-difluorophenyl)methanol], the Emax at 10 µM was 25 to 50% in test [1] and under 25% in test [2].

Take `CCC[C@H]1CCC[C@H]([C@@H](O)c2cc(F)cc(F)c2)N1` [Compound 66, (S)-[(2R,6S)-6-propyl-2-piperidyl](3,5-difluorophenyl)methanol]: the Emax at 10 µM is 25 to 50% in test [1] and under 25% in test [2].

For `CCC[C@H]1CCC[C@H]([C@H](O)c2ccc(F)c(F)c2)N1` [Compound 67, (R)-[(2R,6S)-6-propyl-2-piperidyl](3,4-difluorophenyl)methanol], the Emax at 10 µM is 25 to 50% in test [1] and under 25% in test [2].

With `CCC[C@H]1CCC[C@H]([C@H](O)c2cc(F)cc(F)c2)N1` [Compound 68, (R)-[(2R,6S)-6-propyl-2-piperidyl](3,5-difluorophenyl)methanol], the Emax at 10 µM in test [1] was 50 to 75%; in test [2], under 25%.

On to `CCC[C@H]1CCC[C@H]([C@H](O)c2cccc(F)c2)N1` [Compound 69, (R)-[(2R,6S)-6-propyl-2-piperidyl](m-fluorophenyl)methanol], for which the Emax at 10 µM in test [1] was 50 to 75%; in test [2], under 25%.

As for `CCC[C@H]1CCC[C@H]([C@@H](O)c2cccc(F)c2)N1` [Compound 70, (S)-[(2R,6S)-6-propyl-2-piperidyl](m-fluorophenyl)methanol], the Emax at 10 µM in test [1] was 50 to 75%; in test [2], under 25%.

Turning to `CCCCNC[C@H](O)c1csc(N)n1` [Compound 71, (S)-1-(2-amino-1,3-thiazol-4-yl)-2-(butylamino)-1-ethanol], the values for the Emax at 10 µM in test [1] and in test [2] were 25 to 50% and under 25%, respectively.

Take `CCCCNC[C@H](O)c1csc(C(F)(F)F)n1` [Compound 72, (S)-2-(butylamino)-1-[2-(trifluoromethyl)-1,3-thiazol-4-yl]-1-ethanol]: the Emax at 10 µM is 25 to 50% in test [1] and under 25% in test [2].

For the molecule `CCCCNC[C@H](O)c1ccnc(N)n1` [Compound 73, (S)-1-(2-amino-4-pyrimidinyl)-2-(butylamino)-1-ethanol], the Emax at 10 µM is 25 to 50% in test [1] and under 25% in test [2].

With `CCCCNC[C@H](O)c1cnc(NC(=O)C(C)C)s1` [Compound 74, N-{5-[(2S)-2-(butylamino)-1-hydroxyethyl]-1,3-thiazol-2-yl}2-methylpropionamide], the Emax at 10 µM in test [1] is 25 to 50%; in test [2] it was under 25%.

Take `CCCCNC[C@H](O)c1cnc(N)s1` [Compound 75, (S)-1-(2-amino-1,3-thiazol-5-yl)-2-(butylamino)-1-ethanol]: the Emax at 10 µM was 25 to 50% in test [1] and under 25% in test [2].

Consider `CC(C)(C)NC[C@H](O)c1cccc(F)c1F` [Compound 76, (R)-2-(tert-butylamino)-1-(2,3-difluorophenyl)-1-ethanol], for which the Emax at 10 µM in test [1] was over 75%; in test [2], 25 to 50%.

Regarding `CCCCNC[C@H](O)c1cccc(F)c1F` [Compound 77, (R)-2-(butylamino)-1-(2,3-difluorophenyl)-1-ethanol], the Emax at 10 µM in test [1] was over 75%; in test [2], under 25%.

Consider `CC(C)(C)NC[C@H](O)c1ccccc1F` [Compound 78, (R)-2-(tert-butylamino)-1-(o-fluorophenyl)-1-ethanol], for which the values for the Emax at 10 µM in test [1] and in test [2] were over 75% and 25 to 50%, respectively.

For the molecule `CCCCNC[C@H](O)c1ccccc1F` [Compound 79, (R)-2-(butylamino)-1-(o-fluorophenyl)-1-ethanol], the Emax at 10 µM in test [1] was over 75%; in test [2], under 25%.

With `CC(C)(C)NC[C@H](O)c1ccc(F)cc1O` [Compound 80, (R)-2-(tert-butylamino)-1-(4-fluoro-2-hydroxyphenyl)-1-ethanol], the Emax at 10 µM in test [1] was 50 to 75%; in test [2], under 25%.

As to `CCCCNC[C@H](O)c1ccc(F)cc1O` [Compound 81, (R)-2-(butylamino)-1-(4-fluoro-2-hydroxyphenyl)-1-ethanol], the values for the Emax at 10 µM in test [1] and in test [2] were 50 to 75% and under 25%, respectively.

For `CC1(NC[C@H](O)c2cccc(F)c2)CC1` [Compound 82, (R)-1-(m-fluorophenyl)-2-(1-methylcyclopropylamino)-1-ethanol], the results for the Emax at 10 µM in test [1] and in test [2] were over 75% and under 25%, respectively.

Turning to `CC1(NC[C@H](O)c2cccc(F)c2)CCC1` [Compound 83, (R)-1-(m-fluorophenyl)-2-(1-methylcyclobutylamino)-1-ethanol], the Emax at 10 µM in test [1] is over 75%; in test [2], 25 to 50%.

With `CC(C)(C)NC[C@H](O)c1ccc(F)c(O)c1` [Compound 84, (R)-2-(tert-butylamino)-1-(4-fluoro-3-hydroxyphenyl)-1-ethanol], the Emax at 10 µM was over 75% in test [1] and 50 to 75% in test [2].

For `CCCCNC[C@H](O)c1ccc(F)c(O)c1` [Compound 85, (R)-2-(butylamino)-1-(4-fluoro-3-hydroxyphenyl)-1-ethanol], the results for the Emax at 10 µM in test [1] and in test [2] were over 75% and under 25%, respectively.

As for `CC(C)(C)NC[C@H](O)c1cccc(O)c1F` [Compound 86, (R)-2-(tert-butylamino)-1-(2-fluoro-3-hydroxyphenyl)-1-ethanol], the Emax at 10 µM in test [1] and in test [2] was 50 to 75% throughout.

On to `CCCCNC[C@H](O)c1cccc(O)c1F` [Compound 87, (R)-2-(butylamino)-1-(2-fluoro-3-hydroxyphenyl)-1-ethanol], for which the Emax at 10 µM in test [1] was over 75%; in test [2], 25 to 50%.

Regarding `CCCCNC[C@H](O)c1cnc(NC(=O)C(C)C)nc1` [Compound 88, N-{5-[(R)-2-(butylamino)-1-hydroxyethyl]-2-pyrimidinyl}2-methylpropionamide], the Emax at 10 µM in test [1] was 50 to 75%; in test [2], under 25%.
